Key:
[1] = test system: subcutaneously pentetrazol-injected model (scPTZ); test: Subcutaneously pentetrazol-injected model (scPTZ) test; format: in vivo, mice; conditions: pentetrazol 85 mg/kg s.c. after 1 hour
Method in brief: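 Pentetrazol (85 mg/kg, s.c.) was injected one hour after oral test compound at 50 or 100 mg/kg in groups of three male Slc:ddY mice weighing 20-30 g; vehicle controls got 0.5% tragacanth or 0.5% methylcellulose.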

amygdala-kindling model = test: Amygdala-kindling model in rats; format: in vivo
Source text: Test 3: Test with Amygdala-Kindling Model in Rats
Test 3 evaluates the anticonvulsant action of medicaments in rats, besides mice in Tests 1 and 2. Animal model (kindling model) used herein is a very similar model to clinical findings of focal onset seizures (i.e. simple partial seizure, complex partial seizure, and secondarily generalized tonic-clonic seizure), which is known to provide excellent clinical prediction. A chronic electrode was implanted in the cortex (frontal and posterior regions) and the amygdala of Slc: Wistar male rats (body weight 250-300 g). One week after the above operation, electrical stimulation (50 Hz, 400 μA, 1 second) into the amygdala was conducted once a day for about two weeks. The stimulation condition was determined according to the method of Loscher et al. [Epilepsy Res., 40: 63-77 (2000)]. The stimulation was continued until the seizure stage 5 in the seizure severity stages according to the method of Racine et al. [Motor seizure. Electroenceph. Clin. Neurophysiol., 32:281-294 (1972)] was observed 10 consecutive times. Kindling model was thus completed. Then, test compounds (100 mg/kg) were orally administered to this model. After an hour of administration, the rats were evaluated based on three parameters, i.e., a threshold stimulus current to induce seizure (i.e. seizure threshold), the duration of afterdischrage observed on an electroencephalogram, and seizure severity (stage scores 1-5). The results of the seizure threshold and the afterdischarge duration were shown as average percentage of change from the pretreatment value obtained before the administration of each test compound. To the control rats, 0.5% tragacanth solution was administered. Minus means decreased or shortened.

Slc: C57BL/6J male mice = test: Evaluation of antimanic effect (methamphetamine and chlordiazepoxide induced hyperactivity, locomotor distance); format: in vivo; conditions: methamphetamine 4 mg/kg and chlordiazepoxide 10 mg/kg i.p.
Source text: Meanwhile, there are no reports about animal models which provide a good clinical prediction to evaluate the improving efficacy for bipolar disorder. However, bipolar disorder comprises “manic state” and “depressive state”, and some animals are reported to be useful as a model to evaluate the improvement of each pathological condition individually. In general, an index of manic state is excessive hyperactivity induced by administering methamphetamine and chlordiazepoxide in combination, and that of depressive state is immobility induced by forced swimming.
Test 7: Evaluation of Antimanic Effect
Test 7 evaluates the antimanic effect of medicaments. The evaluation system is a test system whose utility has been already confirmed with a known antimanic agent which is clinically used as a mood-stabilizing drug, not as a drug for treating schizophrenia (Arban et al., Behay. Brain Res., 158:123-132, 2005, Foreman et al., Pharmacol. Biochem. Behay., 89: 523-534, 2008). Test compounds were orally administered to Slc: C57BL/6J male mice (8 mice in each group, body weight 20-26 g). After 30 minutes of administration, methamphetamine (4 mg/kg) and chlordiazepoxide (10 mg/kg) were administered intraperitoneally. Then, the mice were allowed to move freely in an acrylic cage (W 360 mm×D 230 mm×H 310 mm) for 90 minutes. The locomotor distances of the mice were measured with Ethovision software (Ver. 3.1). Among the 90 minutes, the result of the latter 60 minutes with the exception of the first 30 minute's result for adaptation to the new environment was used as data of the locomotor distance. The antimanic effect was evaluated by calculating how long locomotor distance was shortened against the control. To the control mice, 0.5% methylcellulose solution was administered.

[2] = test system: maximum electroshock seizure (MES) model; test: Maximum electroshock seizure (MES) model test; format: in vivo, mice
Method in brief: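 Tonic hind-limb extension was elicited by corneal electroshock (60 Hz, 25 mA, 0.2 s) 1 h after oral dosing. Test compounds were given at 50 or 100 mg/kg to groups of 3 male Slc: ddY mice (20-30 g), vehicle controls receiving 0.5% tragacanth or 0.5% methylcellulose solution.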

[3] = test system: 6 Hz psychomotor seizure model; test: 6 Hz psychomotor seizure model; format: in vivo, mice; conditions: mice
Method in brief: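 Anticonvulsant activity was tested in the 6 Hz psychomotor seizure model in mice, a model reflecting seizures resistant to current antiepileptic drugs. 30 minutes or an hour after dosing, corneal electrical stimulation (6 Hz, 32 mA, 3 seconds) was applied to provoke forelimb myoclonus, Straub tail and immobility. Control mice received 0.5% tragacanth solution, 0.5% methylcellulose solution or olive oil.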

[4] = oral administration at a dose of 100 mg/kg

## NC(=O)Cc1ccccc1-c1ccccc1F [Example 1, 2-(2′-Fluorobiphenyl-2-yl)acetamide]
[1]; Mus musculus, po, 1 h, 50 mg/kg oral, Slc: ddY male mice, 3 per group, observed 30 minutes for clonic convulsion, read-out: scPTZ (positive number/tested number) (converted)
  responders at 50 mg/kg: 66.7%
[1]; Mus musculus, po, 1 h, 100 mg/kg oral, Slc: ddY male mice, 3 per group, observed 30 minutes for clonic convulsion, read-out: scPTZ (positive number/tested number) (converted)
  responders at 100 mg/kg: 66.7%
[1]; mice, oral 50 or 100 mg/kg
  anticonvulsant action in subcutaneously pentetrazol-injected model (scPTZ) test: anticonvulsant action was observed
amygdala-kindling model; 100 mg/kg oral, 1 hour after administration, average percentage of change from pretreatment value
  Seizure threshold (uA) Δ % change: 69.3%
amygdala-kindling model; 100 mg/kg oral, 1 hour after administration, change from pretreatment value, minus means shortened
  Afterdischarge duration (sec) Δ % change: −88%
amygdala-kindling model; 100 mg/kg oral, 1 hour after administration, stage scores 1-5
  Seizure severity score: 2.0
amygdala-kindling model; [4]
  efficacy against the amygdala-kindling model: potent efficacy
Slc: C57BL/6J male mice; 30 mg/kg oral
  The rate of the shortened locomotor-distance (% control): 24.1 % control
Slc: C57BL/6J male mice; 60 mg/kg oral
  The rate of the shortened locomotor-distance (% control): 43.8 % control
Slc: C57BL/6J male mice; 100 mg/kg oral
  The rate of the shortened locomotor-distance (% control): 73.8 % control
[2]; Mus musculus, po, 1 h, 50 mg/kg oral, Slc: ddY male mice, 3 per group, electrical stimulation 1 hour after administration, inhibition of hind limb extension, read-out: MES (positive number/tested number) (converted)
  responders at 50 mg/kg: 100%
[2]; Mus musculus, po, 1 h, 100 mg/kg oral, Slc: ddY male mice, 3 per group, electrical stimulation 1 hour after administration, inhibition of hind limb extension, read-out: MES (positive number/tested number) (converted)
  responders at 100 mg/kg: 100%
[2]; mice, oral 50 or 100 mg/kg, 1 hour after administration
  anticonvulsant action in maximum electroshock seizure (MES) model test: anticonvulsant action was observed
[3]; Mus musculus, 6 Hz psychomotor seizure model, oral, read-out: ED50
  ED50: 56.2 mg/kg
[3]; [4]
  efficacy in 6 Hz psychomotor seizure model: potent efficacy
[3]; oral, dose 100 mg/kg, 30 minutes or 1 hour after administration
  6 Hz (Positive number/tested number): 10/10/100
